Experimental data published in patent US12447160B2, “Topical treatment of wounds with statins and cholesterol for scar reduction” (Northwestern University, priority 2017, dated 2025).

How the values were obtained:
[1] = tested on: hypertrophic scar; test: Rabbit ear hypertrophic scar model, scar elevation index (SEI) by histomorphometry; format: in vivo, New Zealand White rabbits
[2] = Solubility of statins in the topical vehicle / microemulsion system; format: physicochemical
From the text: Transdermal penetration is the critical limitation in topical application. […] The stratum corneum is hydrophobic and a barrier for any topically applied reagent, and so hydrophobic statins should have increased penetration^18. […] Dosing schedules were chosen based upon in vitro dosing necessary to interfere with CTGF expression^11-13,22,23, and extrapolated to animal models based upon our experience with dose response curves for growth factors in our rabbit ear model^24.

[3] = tested on: CTGF mRNA; test: Quantification of CTGF mRNA expression in dermal scar tissue (qPCR); format: in vivo, New Zealand White rabbits; conditions: high-dose (10%) simvastatin topical, mean±SEM, p<0.01
Procedure: (§1) Total RNA was extracted from dermal scar tissue of high-dose simvastatin topical treatment and control scars using TRI reagent (Sigma-Aldrich, St. Louis, MO), and contaminated DNA was removed with Turbo DNA-free kit (Ambion, Austin, TX). The cDNA was synthesized from one μg of total RNA by superscript II reverse transcriptase (Invitrogen, Grand Island, NY) with 100 ng of random primers in 20 μl of volume. Synthesized cDNA was quantified in a sequence detection system (ABI StepOnePlus; Applied Biosystems, Foster City, CA) using SYBR green and specific primers of CTGF and collagen 1A1, and 18 S rRNA was set as endogenous control. The sequence of primers is as followed: CTGF (5′-CTTCTGTCGGCTGGAGAAAC-3′ (SEQ ID NO:1) & 5′-TTAGCCCGGTACGTCTTCAC-3′ (SEQ ID NO:2)); Collagen 1A1: (5′-TAAGAGCTCCAAGGCCAAGA-3′(SEQ ID NO:3) & 5′-TGTTCTGAGAGGCGTGATTG-3′ (SEQ ID NO:4)); Glyceraldehyde 3-phosphate dehydrogenase (5′-AGGTCATCCACGACCACTTC-3′ (SEQ ID NO:5) & 5′-GTGAGTTTCCCGTTCAGCTC-3′ (SEQ ID NO:6)).
(§2) For statistical analysis of histological and molecular analysis results, Student's paired t test was applied to see if there is a difference between treatment and control group, p<0.05 was used as significant. All values were represented as mean±standard error.

[4] = tested on: Collagen 1A1 mRNA; test: Quantification of Collagen 1A1 mRNA expression in dermal scar tissue (qPCR); format: in vivo, New Zealand White rabbits; conditions: high-dose (10%) simvastatin topical, mean±SEM, p<0.01
Procedure: as §1, §2

## CC(C)CCC[C@@H](C)[C@H]1CC[C@H]2[C@@H]3CC=C4C[C@@H](O)CC[C@]4(C)[C@H]3CC[C@]12C [cholesterol]
[1]; topical cholesterol in vehicle
  Effect of cholesterol on reducing scarring: mild, not statistically effect

## CC[C@H](C)C(=O)O[C@H]1C[C@@H](C)C=C2C=C[C@H](C)[C@H](CC[C@@H]3C[C@@H](O)CC(=O)O3)[C@H]21 [lovastatin]
[2]
  Solubility in the vehicle tested: limited solubility

## CC[C@H](C)C(=O)O[C@H]1C[C@H](O)C=C2C=C[C@H](C)[C@H](CC[C@@H](O)C[C@@H](O)CC(=O)O)[C@H]21 [pravastatin]
[1]; intradermal 100 μl 10 μM pravastatin in PBS per wound at POD 15, 18, 21, harvest POD 28, mean±standard error, saline control 1.71±0.08, p=0.0009
  Scar elevation index (SEI): 1.55±0.07

## CCC(C)(C)C(=O)O[C@H]1C[C@@H](C)C=C2C=C[C@H](C)[C@H](CC[C@@H]3C[C@@H](O)CC(=O)O3)[C@H]21 [simvastatin]
[3]
  mRNA expression of CTGF compared to vehicle control: 53.8±8.0%
[4]
  mRNA expression of Collagen 1A1 compared to vehicle control: 48.5±14%
